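Test compounds were applied to cells in 96-well plates for 48 hours at 5 doses. Definition used: TGI = concentration required for complete inhibition of growth.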
Columns and labels:
Assay in all cases: growth of human tumour cells (NCI), 48 h
[1] = test system: MCF7 breast
[2] = test system: UACC-257 melanoma
[3] = test system: EKVX NSCLC
[4] = test system: ACHN renal
[5] = test system: SN12C renal
[6] = test system: SF-268 CNS
[7] = test system: IGROV1 ovarian
[8] = test system: SNB-19 CNS
[9] = test system: T-47D breast
[10] = test system: HS 578T breast
[11] = test system: SK-MEL-2 melanoma
[12] = test system: OVCAR-4 ovarian
[13] = test system: MALME-3M melanoma
[14] = test system: TK-10 renal
[15] = test system: SF-539 CNS
[16] = test system: HCT-116 colon
[17] = test system: SR leukemia
[18] = test system: OVCAR-5 ovarian
[19] = test system: A498 renal
[20] = test system: HT29 colon
[21] = test system: SW-620 colon
[22] = test system: M14 melanoma
[23] = test system: HCT-15 colon
[24] = test system: K-562 leukemia
[25] = test system: SK-MEL-5 melanoma
[26] = test system: NCI-H226 lung
[27] = test system: HCC-2998 colon
[28] = test system: MDA-MB-435
[29] = test system: HOP-62 NSCLC
[30] = test system: DU-145 prostate
[31] = test system: SK-OV-3 ovarian
[32] = test system: NCI-H23 lung
[33] = test system: CCRF-CEM leukemia
[34] = test system: PC-3 prostate
[35] = test system: A549 NSCLC
[36] = test system: MOLT-4 leukemia
[37] = test system: COLO 205 colon
[38] = test system: RXF 393 renal
[39] = test system: SF-295 CNS
[40] = test system: NCI/ADR-RES ovarian
[41] = test system: UO-31 renal
[42] = test system: HOP-92 NSCLC
[43] = test system: KM12 colon
[44] = test system: MDA-MB-231 breast
[45] = test system: BT-549 breast
[46] = test system: 786-0 renal
[47] = test system: OVCAR-3 ovarian
[48] = test system: NCI-H460 lung
[49] = test system: LOX IMVI melanoma
[50] = test system: U251 CNS
[51] = test system: RPMI-8226 leukemia
[52] = test system: UACC-62 melanoma
[53] = test system: CAKI-1 renal
[54] = test system: SK-MEL-28 melanoma
[55] = test system: OVCAR-8 ovarian

COc1cc2c(cc1C[C@H]1[C@@H]3C[C@H]4c5c(c6ccccc6n5C)C[C@@H]([C@@H]3CO[C@]1(C)OC(C)=O)N4C)c1c(n2C)C2C[C@H]3C(C(C)=O)=COC[C@H]3[C@H](C1)N2C gave a TGI [1] greater than 25 µM, a TGI [2] of 8.01 µM and a TGI [3] of 2.24 µM. For the same compound, the TGI [4] was 10.1 µM, the TGI [5] was greater than 25 µM and the TGI [6] was 24 µM. For the same compound, the TGI [7] was greater than 25 µM, the TGI [8] was greater than 25 µM and the TGI [9] was 17.2 µM. The TGI [10] was 13.3 µM, the TGI [11] was 15.2 µM and the TGI [12] was greater than 25 µM. The TGI [13] was 6.42 µM, the TGI [14] was 16.1 µM and the TGI [15] was 5.87 µM. It also gave a TGI [16] of 5.39 µM, a TGI [17] of 7.62 µM and a TGI [18] of 11.6 µM. For the same compound, the TGI [19] was greater than 25 µM, the TGI [20] was 4.86 µM and the TGI [21] was 11.3 µM. For the same compound, the TGI [22] was 6.24 µM, the TGI [23] was 6.25 µM and the TGI [24] was greater than 25 µM. The TGI [25] was 6.79 µM, the TGI [26] was 21.7 µM and the TGI [27] was 0.246 µM. For the same compound, the TGI [28] was greater than 25 µM, the TGI [29] was 6.29 µM and the TGI [30] was greater than 25 µM. For the same compound, the TGI [31] was greater than 25 µM, the TGI [32] was greater than 25 µM and the TGI [33] was 5.84 µM. It also gave a TGI [34] of 2.7 µM, a TGI [35] greater than 25 µM and a TGI [36] greater than 25 µM. For the same compound, the TGI [37] was 6.19 µM, the TGI [38] was 6.04 µM and the TGI [39] was 10.4 µM. The TGI [40] was 8.32 µM, the TGI [41] was greater than 25 µM and the TGI [42] was greater than 25 µM. For the same compound, the TGI [43] was 5.27 µM, the TGI [44] was 11.2 µM and the TGI [45] was 13.3 µM. The TGI [46] was 5.89 µM, the TGI [47] was 5.98 µM and the TGI [48] was 8.21 µM. It also gave a TGI [49] greater than 25 µM, a TGI [50] greater than 25 µM and a TGI [51] of 3.56 µM. For the same compound, the TGI [52] was 14.6 µM, the TGI [53] was 9.06 µM and the TGI [54] was greater than 25 µM. The TGI [55] was 8.83 µM.
